Measured values reported in PubChem BioAssay (NCI).
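48-hour exposure; five concentrations; linearly interpolated endpoints. The concentration for 50% growth inhibition is given as GI50. TGI marks complete inhibition of growth.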

Tests used:
Test in all cases: growth of human tumour cells (NCI), 48 h
HT29 colon = system: HT29 colon
SF-539 CNS = system: SF-539 CNS
A498 renal = system: A498 renal
COLO 205 colon = system: COLO 205 colon
MDA-MB-435 = system: MDA-MB-435
EKVX NSCLC = system: EKVX NSCLC
MOLT-4 leukemia = system: MOLT-4 leukemia
SK-MEL-28 melanoma = system: SK-MEL-28 melanoma
MALME-3M melanoma = system: MALME-3M melanoma
OVCAR-8 ovarian = system: OVCAR-8 ovarian
SF-268 CNS = system: SF-268 CNS
SNB-19 CNS = system: SNB-19 CNS
NCI-H23 lung = system: NCI-H23 lung
SNB-75 CNS = system: SNB-75 CNS
BT-549 breast = system: BT-549 breast
786-0 renal = system: 786-0 renal
SW-620 colon = system: SW-620 colon
T-47D breast = system: T-47D breast
OVCAR-5 ovarian = system: OVCAR-5 ovarian
SN12C renal = system: SN12C renal
ACHN renal = system: ACHN renal
HL-60(TB) leukemia = system: HL-60(TB) leukemia
NCI-H226 lung = system: NCI-H226 lung
NCI-H522 lung = system: NCI-H522 lung
RXF 393 renal = system: RXF 393 renal
NCI/ADR-RES ovarian = system: NCI/ADR-RES ovarian
HCT-116 colon = system: HCT-116 colon
UACC-257 melanoma = system: UACC-257 melanoma
UACC-62 melanoma = system: UACC-62 melanoma
OVCAR-4 ovarian = system: OVCAR-4 ovarian
SR leukemia = system: SR leukemia
HS 578T breast = system: HS 578T breast
SF-295 CNS = system: SF-295 CNS
CAKI-1 renal = system: CAKI-1 renal
A549 NSCLC = system: A549 NSCLC
CCRF-CEM leukemia = system: CCRF-CEM leukemia
SK-MEL-5 melanoma = system: SK-MEL-5 melanoma
M14 melanoma = system: M14 melanoma
HOP-92 NSCLC = system: HOP-92 NSCLC
UO-31 renal = system: UO-31 renal
K-562 leukemia = system: K-562 leukemia
MCF7 breast = system: MCF7 breast
MDA-MB-231 breast = system: MDA-MB-231 breast
NCI-H460 lung = system: NCI-H460 lung
SK-OV-3 ovarian = system: SK-OV-3 ovarian
IGROV1 ovarian = system: IGROV1 ovarian
TK-10 renal = system: TK-10 renal
HOP-62 NSCLC = system: HOP-62 NSCLC
SK-MEL-2 melanoma = system: SK-MEL-2 melanoma
LOX IMVI melanoma = system: LOX IMVI melanoma
KM12 colon = system: KM12 colon
OVCAR-3 ovarian = system: OVCAR-3 ovarian
U251 CNS = system: U251 CNS
PC-3 prostate = system: PC-3 prostate
HCT-15 colon = system: HCT-15 colon
DU-145 prostate = system: DU-145 prostate
HCC-2998 colon = system: HCC-2998 colon

O=C(Nc1ccc(Cl)cc1)Nc1nc2ccc([N+](=O)[O-])cc2s1
GI50 (HT29 colon): 2570 nM
TGI (HT29 colon): 7140 nM
GI50 (SF-539 CNS): 915 nM
TGI (SF-539 CNS): 2350 nM
GI50 (A498 renal): 275 nM
TGI (A498 renal): 996 nM
GI50 (COLO 205 colon): 1700 nM
TGI (COLO 205 colon): 3290 nM
GI50 (MDA-MB-435): 729 nM
TGI (MDA-MB-435): 2200 nM
GI50 (EKVX NSCLC): 886 nM
TGI (EKVX NSCLC): 2660 nM
GI50 (MOLT-4 leukemia): 438 nM
TGI (MOLT-4 leukemia): 1980 nM
GI50 (SK-MEL-28 melanoma): 663 nM
TGI (SK-MEL-28 melanoma): 2020 nM
GI50 (MALME-3M melanoma): 467 nM
TGI (MALME-3M melanoma): 1870 nM
GI50 (OVCAR-8 ovarian): 1270 nM
TGI (OVCAR-8 ovarian): 4700 nM
GI50 (SF-268 CNS): 1090 nM
TGI (SF-268 CNS): 3460 nM
GI50 (SNB-19 CNS): 735 nM
TGI (SNB-19 CNS): 2750 nM
GI50 (NCI-H23 lung): 332 nM
TGI (NCI-H23 lung): 1260 nM
GI50 (SNB-75 CNS): 952 nM
TGI (SNB-75 CNS): 3510 nM
GI50 (BT-549 breast): 593 nM
TGI (BT-549 breast): 1760 nM
GI50 (786-0 renal): 776 nM
TGI (786-0 renal): 2390 nM
GI50 (SW-620 colon): 840 nM
TGI (SW-620 colon): 2340 nM
GI50 (T-47D breast): 308 nM
TGI (T-47D breast): 1280 nM
GI50 (OVCAR-5 ovarian): 1850 nM
TGI (OVCAR-5 ovarian): 4450 nM
GI50 (SN12C renal): 647 nM
TGI (SN12C renal): 2590 nM
GI50 (ACHN renal): 751 nM
TGI (ACHN renal): 2290 nM
GI50 (HL-60(TB) leukemia): 604 nM
TGI (HL-60(TB) leukemia): 2020 nM
GI50 (NCI-H226 lung): 777 nM
TGI (NCI-H226 lung): 2460 nM
GI50 (NCI-H522 lung): 378 nM
TGI (NCI-H522 lung): 2890 nM
GI50 (RXF 393 renal): 587 nM
TGI (RXF 393 renal): 1940 nM
GI50 (NCI/ADR-RES ovarian): 880 nM
TGI (NCI/ADR-RES ovarian): 2280 nM
GI50 (HCT-116 colon): 346 nM
TGI (HCT-116 colon): 1270 nM
GI50 (UACC-257 melanoma): 639 nM
TGI (UACC-257 melanoma): 2790 nM
GI50 (UACC-62 melanoma): 485 nM
TGI (UACC-62 melanoma): 2140 nM
GI50 (OVCAR-4 ovarian): 573 nM
TGI (OVCAR-4 ovarian): 3130 nM
GI50 (SR leukemia): 566 nM
TGI (SR leukemia): 2280 nM
GI50 (HS 578T breast): 1170 nM
TGI (HS 578T breast): 3870 nM
GI50 (SF-295 CNS): 728 nM
TGI (SF-295 CNS): 2120 nM
GI50 (CAKI-1 renal): 653 nM
TGI (CAKI-1 renal): 2510 nM
GI50 (A549 NSCLC): 837 nM
TGI (A549 NSCLC): 3430 nM
GI50 (CCRF-CEM leukemia): 393 nM
TGI (CCRF-CEM leukemia): 1850 nM
GI50 (SK-MEL-5 melanoma): 365 nM
TGI (SK-MEL-5 melanoma): 1330 nM
GI50 (M14 melanoma): 815 nM
TGI (M14 melanoma): 2240 nM
GI50 (HOP-92 NSCLC): 187 nM
TGI (HOP-92 NSCLC): 628 nM
GI50 (UO-31 renal): 545 nM
TGI (UO-31 renal): 2450 nM
GI50 (K-562 leukemia): 375 nM
TGI (K-562 leukemia): 1550 nM
GI50 (MCF7 breast): 460 nM
TGI (MCF7 breast): 1910 nM
GI50 (MDA-MB-231 breast): 1120 nM
TGI (MDA-MB-231 breast): 2920 nM
GI50 (NCI-H460 lung): 468 nM
TGI (NCI-H460 lung): 1700 nM
GI50 (SK-OV-3 ovarian): 843 nM
TGI (SK-OV-3 ovarian): 4510 nM
GI50 (IGROV1 ovarian): 1080 nM
TGI (IGROV1 ovarian): 2680 nM
GI50 (TK-10 renal): 889 nM
TGI (TK-10 renal): 4320 nM
GI50 (HOP-62 NSCLC): 1190 nM
TGI (HOP-62 NSCLC): 3130 nM
GI50 (SK-MEL-2 melanoma): 554 nM
TGI (SK-MEL-2 melanoma): 2320 nM
GI50 (LOX IMVI melanoma): 727 nM
TGI (LOX IMVI melanoma): 2060 nM
GI50 (KM12 colon): 642 nM
TGI (KM12 colon): 2310 nM
GI50 (OVCAR-3 ovarian): 435 nM
TGI (OVCAR-3 ovarian): 1590 nM
GI50 (U251 CNS): 606 nM
TGI (U251 CNS): 2570 nM
GI50 (PC-3 prostate): 380 nM
TGI (PC-3 prostate): 1630 nM
GI50 (HCT-15 colon): 675 nM
TGI (HCT-15 colon): 2110 nM
GI50 (DU-145 prostate): 1110 nM
TGI (DU-145 prostate): 5150 nM
GI50 (HCC-2998 colon): 590 nM
TGI (HCC-2998 colon): 2080 nM
